The values that follow come from patent US12202816B2 (CALLIDITAS THERAPEUTICS SUISSE SA, priority 2018, dated 2025).

One may read the Ki as the dissociation constant of the complex between target and ligand, obtained from inhibition or displacement.

In the test the target is hNOX enzymes. The experiment in a line: ROS production measurement on hNOX membranes (Amplex Red fluorescence assay, assay 1). Type of test: biochemical, human. To be noted: membranes from CHO or HEK cells overexpressing hNox enzymes; Nox isoform not stated; non linear regression; read-out: Nox inhibitory constant Ki. Here is the method: Reactive oxygen species (ROS) production generated by hNOX enzymes was measured by fluorescence in both cellular and membrane-based assays using the Amplex® Red reagent. In the presence of horseradish peroxidase (HRP), the Amplex® Red reagent (10-acetyl-3,7-dihydroxyphenoxazine, AR), which is a colorless and nonfluorescent derivative of dihydroresorufin, reacts with H2O2 with a 1:1 stoichiometry to produce highly fluorescent resorufin at an excitation and emission wavelengths of 544 nm and 590 nm, respectively.
Membranes from CHO or HEK cells overexpressing hNox enzymes were prepared as previously described (Palicz et al., 2001, J. Biol. Chem, 76, 3090). After resuspension in sonication buffer (11% sucrose, 120 mM NaCl, 1 mM EGTA in PBS, pH 7.4), cells were broken by sonication and centrifuged (200 g, 10 min). The supernatant was layered onto a 17/40% (w/v) discontinuous sucrose gradient and centrifuged (150,000 g for 30 min). Membrane fractions were collected from the 17/40% interface, aliquoted in 10 μl samples and were stored at −80° C. Protein concentration was determined with Bradford reagent. Flavin Adenine Dinucleotide (FAD) (catalog #F6625-500MG), MgCl2 (catalog #M8266-100G), Phosphatidic Acid (PA) (catalog #P3591-50MG) were purchased from Sigma-Aldrich. Horseradish peroxidase (HRP) (catalog #10108090001) was purchased from Roche. NADPH (catalog #A1395, 0500) was purchased from Applichem. Amplex red (AR) (catalog #A22177) was purchased from Invitrogen. 96 well polypropylene and black plates were purchased from Milian (catalog #055529 and #055218, respectively). FLUOstar OPTIMA microplate reader was supplied by BMG Labtech (Germany). Zephyr® Compact Liquid Handling Workstation was supplied by PerkinElmer (Germany).
Assay 1: ROS Production Measurement on hNOX Membranes
All Solutions were placed on ice and protected from light. The final concentration in the 1× hNOX membrane fluorescent assay buffer were PBS pH7, 6 μM FAD, 15 μM PA, 1 mM MgCl2, 12.5 μM AR, 0.02 u/ml, 125 ng membranes, 1.5 μg of cofactors and 30 μM NADPH. The NADPH was dissolved in water at a concentration of 12 mM and was transferred in a metal transfer plate kept at 4° C. The NADPH was added to the assay plate to initiate the reaction just before the measurement.
Serial dilution (1:3, 10 serial dilution) of the compounds was performed in 100% DMSO in 96 well polypropylene plate—Row B—H Column 1-10, Row A, Column 1-10 contained reference compound. Starting concentration was 10^−2 M (10 mM). Final concentration in assay was 10^−4 M (100 μM). Compounds were diluted twice in PBS buffer by transferring 30 μl/well of PBS into 30 μl/well compounds sample in DMSO using Zephyr® Compact Liquid Handling Workstation. Control wells-columns 1 and 12-contained 60 μl DMSO in 50% PBS pH7.
Reaction mixture is dispensed using Zephyr® Compact Liquid Handling Workstation. 90 μl of mix with membrane were dispensed into 96 well black plates—Column 2-11, Column 1 Row A-D, Column 12 Row E-H. 90 μl of control mix were dispensed into assay plate—Column 1 Row E-H, Column 12 Row A-D, which are wells for measuring background signal. 2 μl of compounds were dispensed into each well of assay plate using Zephyr® Compact Liquid Handling Workstation. The reaction mixture with compounds was incubated in assay plates for 20 min at 37° C. in a Titramax microplate incubator with gentle agitation. 10 μl of NADPH is dispensed to the assay plate. Fluorescence reading was recorded with the FLUOstar OPTIMA microplate reader for 10 min at 37° C. (8 cycles, 1 cycle duration 55 sec).
The Table 14 below summarizes the inhibition of NOX activity as measured by the above described assay 1 and expressed by their inhibitory constant calculated by non linear regression analysis using GraphPad Prism Software (GraphPad Software Co., San Diego, CA): […]
As for `COc1cncc(-c2ccc3[nH]c(-c4cncc(F)c4)cc3c2)c1` [Example 24, 2-(5-fluoropyridin-3-yl)-5-(5-methoxypyridin-3-yl)-1H-indole], the Ki was 311 nM.
Turning to `COc1cncc(-c2ccc3[nH]c(-c4ccnc(C)n4)cc3c2)c1` [Example 16, 5-(5-methoxypyridin-3-yl)-2-(2-methylpyrimidin-4-yl)-1H-indole], the Ki is 666 nM.
For `Cc1cc(-c2cc3cc(-c4ccnc(N)c4)ccc3[nH]2)ccn1` [Example 5, 4-(2-(2-methylpyridin-4-yl)-1H-indol-5-yl)pyridin-2-amine] the value was 348 nM.
